Tests used:
fondaparinux (FONDAPX) = assay: FXa chromogenic assay (absence of plasma), fondaparinux; settings: fondaparinux 0.02 μg/mL, absence of plasma
enoxaparin (ENOX) = assay: FXa chromogenic assay (absence of plasma), enoxaparin; settings: enoxaparin 0.1 μg/mL, absence of plasma
[1] = test system: unfractionated heparin (UFH); assay: aPTT clotting assay, UFH 0.2 U/mL in plasma (Example 7); assay type: biochemical; settings: UFH 0.2 U/mL in plasma
Method: aPTT clotting Assay. Unfractionated heparin was mixed with plasma at a final concentration of 0.2 U/mL. […] The ACL Elite Hemostasis analyzer (Beckman Coulter™) was used to add aPTT reagent (HemosIL SynthASil) to supplemented plasma. Clotting was initiated by addition of CaCl2 and time to clot was recorded.

Structure (SMILES) | FONDAPX (FXa) EC50 (fondaparinux (FONDAPX)) | ENOX (FXa) EC50 (enoxaparin (ENOX)) | UFH (aPTT) EC50 [1]
[2H]C([2H])(CN)C([2H])([2H])C[C@H](N)C(=O)Nc1ccc(OC)c(C(=O)N[C@@H](CCCCN)C(=O)Nc2ccc(OC)c(C(=O)N[C@@H](CCCCN)C(=O)Nc3ccc(OC)c(C(=O)N[C@@H](CCCCN)C(=O)Nc4ccc(OC)c(C(N)=O)c4)c3)c2)c1 [Compound 121] | 8.293 µg/mL | 0.4289 µg/mL | 7.48 µg/mL
COc1ccc(NC(=O)[C@H](CCCCN)NC(=O)c2cc(NC(=O)[C@H](CCCCN)NC(=O)c3cc(NC(=O)[C@H](CCCCN)NC(=O)c4cc(NC(=O)[C@H](N)CCCCN)ccc4OC)ccc3OC)ccc2OC)cc1C(N)=O [Compound 122] | 6.037 µg/mL | 0.3254 µg/mL | 3.91 µg/mL
COc1ccc(NC(=O)[C@H](CCCNC(=N)N)NC(=O)c2cc(NC(=O)[C@@H](N)CCCNC(=N)N)ccc2OC)cc1C(=O)N[C@@H](CCCNC(=N)N)C(=O)Nc1ccc(OC)c(C(=O)N[C@@H](CCCNC(=N)N)C(=O)Nc2ccc(OC)c(C(=O)N3CCCC3C(N)=O)c2)c1 (stereo partly drawn) [Compound 123] | inactive | 1.934 µg/mL | >10 µg/mL
COc1ccc(NC(=O)[C@H](CCCCN)NC(=O)c2cc(NC(=O)[C@H](CCCCN)NC(=O)c3cc(NC(=O)[C@H](CCCCN)NC(=O)c4cc(NC(=O)[C@@H](N)CCCCN)cc(C(F)(F)F)c4)ccc3OC)ccc2OC)cc1C(N)=O [Compound 124] | 6.94 µg/mL | 0.418 µg/mL | 7.39 µg/mL
COc1ccc(NC(=O)[C@H](CCCCN)NC(=O)c2cc(NC(=O)[C@H](CCCCN)NC(=O)c3cc(NC(=O)[C@H](CCCCN)NC(=O)c4cc(N)cc(C(F)(F)F)c4)ccc3OC)ccc2OC)cc1C(N)=O [Compound 125] | 3.114 µg/mL | 0.9448 µg/mL | >10 µg/mL
COc1ccc(NC(=O)[C@H](CCCCN)NC(=O)c2cc(NC(=O)[C@H](CCCCN)NC(=O)c3cc(NC(=O)[C@H](CCCCN)NC(=O)c4ccc(NC(=O)[C@@H](N)CCCCN)cc4)ccc3OC)ccc2OC)cc1C(N)=O [Compound 126] | >20 µg/mL | 0.7187 µg/mL | 9.07 µg/mL
COc1ccc(NC(=O)[C@H](CCCCN)NC(=O)c2cc(NC(=O)[C@H](CCCCN)NC(=O)c3cc(NC(=O)[C@H](CCCCN)NC(=O)c4cccc(N(C)C(=O)[C@@H](N)CCCCN)c4)ccc3OC)ccc2OC)cc1C(N)=O [Compound 127] | inactive | >15 µg/mL | 2.33 µg/mL
CNc1cccc(C(=O)N[C@@H](CCCCN)C(=O)Nc2ccc(OC)c(C(=O)N[C@@H](CCCCN)C(=O)Nc3ccc(OC)c(C(=O)N[C@@H](CCCCN)C(=O)Nc4ccc(OC)c(C(N)=O)c4)c3)c2)c1 [Compound 128] | 8.495 µg/mL | 1.651 µg/mL | 4.17 µg/mL
COc1ccc(NC(=O)[C@H](CCCCN)NC(=O)c2cc(NC(=O)[C@H](CCCCN)NC(=O)c3cc(NC(=O)[C@H](CCCCN)NC(=O)c4ccc(NC(=O)[C@@H](N)CCCCN)cc4OC)ccc3OC)ccc2OC)cc1C(N)=O [Compound 129] | 7.996 µg/mL | 0.3888 µg/mL | 2.47 µg/mL
COc1ccc(NC(=O)[C@H](CCCCN)NC(=O)c2cc(NC(=O)[C@H](CCCCN)NC(=O)c3cc(NC(=O)[C@H](CCCCN)NC(=O)c4cc(NC(=O)[C@@H](N)CCCCN)ccc4SC)ccc3OC)ccc2OC)cc1C(N)=O [Compound 130] | 5.47 µg/mL | 0.3835 µg/mL | 2.50 µg/mL
COc1ccc(NC(=O)[C@H](CCCCN)NC(=O)c2cc(NC(=O)[C@H](CCCCN)NC(=O)c3cc(NC(=O)[C@H](CCCCN)NC(=O)c4cnc(N)s4)ccc3OC)ccc2OC)cc1C(N)=O [Compound 131] | >20 µg/mL | 4.499 µg/mL | 3.68 µg/mL
COc1ccc(NC(=O)[C@H](CCCCN)NC(=O)c2cc(NC(=O)[C@H](CCCCN)NC(=O)c3cc(NC(=O)[C@H](CCCCN)NC(=O)c4cc(NC(=O)[C@@H](N)CCCCN)ccc4OC)ccc3SC)ccc2OC)cc1C(N)=O [Compound 132] | inactive | >20 µg/mL | >10 µg/mL
COc1ccc(NC(=O)[C@H](CCCCN)NC(=O)c2cc(NC(=O)[C@H](CCCCN)NC(=O)c3cc(NC(=O)[C@H](CCCCN)NC(=O)c4cc(NC(=O)[C@@H](N)CCCCN)ccc4OC)ccc3OC)ccc2SC)cc1C(N)=O [Compound 133] | inactive | >20 µg/mL | >10 µg/mL
COc1ccc(NC(=O)[C@H](CCCCN)NC(=O)c2cc(NC(=O)[C@@H](N)CCCCN)ccc2OC)cc1C(=O)N[C@@H](CCCCN)C(=O)Nc1ccc(OC)c(C(=O)N[C@@H](CCCCN)C(=O)Nc2ccc(SC)c(C(N)=O)c2)c1 [Compound 134] | inactive | 1.829 µg/mL | 2.84 µg/mL
COc1ccc(NC(=O)[C@@H](CCCNC(=N)N)NC(=O)c2cc(NC(=O)[C@@H](CCCNC(=N)N)NC(=O)c3cc(NC(=O)[C@@H](CCCNC(=N)N)NC(=O)c4cc(NC(=O)[C@H](N)CCCNC(=N)N)ccc4OC)ccc3OC)ccc2OC)cc1C(N)=O [Compound 135] | 0.7596 µg/mL | 0.1581 µg/mL | 2.79 µg/mL
COc1ccc(NC(=O)[C@@H](CCCNC(=N)N)NC(=O)c2cc(NC(=O)[C@@H](CCCNC(=N)N)NC(=O)c3cc(NC(=O)[C@@H](CCCNC(=N)N)NC(=O)c4cc(NC(=O)[C@H](N)CCCNC(=N)N)ccc4OC)ccc3OC)ccc2OC)cc1C(N)=O [Compound 136] | 0.8018 µg/mL | 0.194 µg/mL | 2.91 µg/mL
COc1ccc(NC(=O)[C@H](CCCCN)NC(=O)c2cc(NC(=O)[C@H](CCCCN)NC(=O)c3cc(NC(=O)[C@H](CCCCN)NC(=O)c4cc(NC(=O)[C@@H](N)CCCNC(N)=O)ccc4OC)ccc3OC)ccc2OC)cc1C(N)=O [Compound 137] | 4.025 µg/mL | 0.3761 µg/mL | 2.00 µg/mL
COc1ccc(NC(=O)[C@H](CCCCN)NC(=O)c2cc(NC(=O)[C@H](CCCCN)NC(=O)c3cc(NC(=O)[C@H](CCCNC(N)=O)NC(=O)c4cc(NC(=O)[C@@H](N)CCCCN)ccc4OC)ccc3OC)ccc2OC)cc1C(N)=O [Compound 138] | 2.332 µg/mL | 0.3298 µg/mL | 2.15 µg/mL
COc1ccc(NC(=O)[C@H](CCCCN)NC(=O)c2cc(NC(=O)[C@H](CCCNC(N)=O)NC(=O)c3cc(NC(=O)[C@H](CCCCN)NC(=O)c4cc(NC(=O)[C@@H](N)CCCCN)ccc4OC)ccc3OC)ccc2OC)cc1C(N)=O [Compound 139] | 2.485 µg/mL | 0.3196 µg/mL | 2.46 µg/mL
COc1ccc(NC(=O)[C@H](CCCNC(N)=O)NC(=O)c2cc(NC(=O)[C@H](CCCCN)NC(=O)c3cc(NC(=O)[C@H](CCCCN)NC(=O)c4cc(NC(=O)[C@@H](N)CCCCN)ccc4OC)ccc3OC)ccc2OC)cc1C(N)=O [Compound 140] | 4.636 µg/mL | 0.4309 µg/mL | 2.52 µg/mL
COc1ccc(NC(=O)[C@H](CCCCN)NC(=O)c2cc(NC(=O)[C@@H](N)CCCCN)ccc2OC)cc1C(=O)N[C@@H](CCCCN)C(=O)Nc1ccc(SC)c(C(=O)N[C@@H](CCCCN)C(=O)Nc2ccc(SC)c(C(N)=O)c2)c1 [Compound 141] | inactive | inactive | inactive
COc1ccc(NC(=O)[C@H](CCCCN)NC(=O)c2cc(NC(=O)[C@H](CCCCN)NC(=O)c3cc(NC(=O)[C@H](CCCCN)NC(=O)c4cc(NC(=O)[C@@H](N)CCCCN)ccc4OC)ccc3OC)ccc2OC)cc1C(=O)N[C@@H](CCCNC(N)=O)C(=O)O [Compound 142] | 7.045 µg/mL | 0.592 µg/mL | 2.88 µg/mL
COc1ccc(NC(=O)[C@H](CCCCN)NC(=O)c2cc(NC(=O)[C@H](CCCCN)NC(=O)c3cc(NC(=O)[C@H](CCCCN)NC(=O)c4cc(NC(=O)[C@@H](N)CCCCN)ccc4OC)ccc3OC)ccc2OC)cc1C(=O)NCCCCCC(=O)O [Compound 143] | 12.700 µg/mL | 1.011 µg/mL | 2.96 µg/mL
COc1ccc(NC(=O)[C@H](CCCCN)NC(=O)c2cc(NC(=O)[C@H](CCCCN)NC(=O)c3cc(NC(=O)[C@H](CCCCN)NC(=O)c4cc(NC(=O)[C@@H](N)CCCCN)ccc4OC)ccc3OC)ccc2OC)cc1C(=O)Nc1cccc(C(=O)O)c1 [Compound 144] | 1.051 µg/mL | 0.244 µg/mL | 3.13 µg/mL
COc1ccc(NC(=O)[C@H](CCCCN)NC(=O)c2cc(NC(=O)[C@H](CCCCN)NC(=O)c3cc(NC(=O)[C@H](CCCCN)NC(=O)c4cc(NC(=O)[C@@H](N)CCCCN)ccc4OC)ccc3OC)ccc2OC)cc1C(=O)N[C@@H](CCC(=O)O)C(=O)O [Compound 145] | 9.463 µg/mL | 1.141 µg/mL | 4.26 µg/mL
COc1ccc(NC(=O)[C@H](CCCCN)NC(=O)c2cc(NC(=O)[C@@H](N)CCCCN)ccc2OC)cc1C(=O)N[C@@H](CCCCN)C(=O)Nc1ccc(OC)c(C(=O)N[C@@H](CCCCN)C(=O)Nc2ccc(OC)c(C(=O)N[C@H](C)C(=O)O)c2)c1 [Compound 146] | 19.030 µg/mL | 1.027 µg/mL | 2.74 µg/mL

Source: US20110178104A1, “Anti-Heparin Compounds” (POLYMEDIX INC., priority 2010, published 2011)
